Tested on: tester strains
Experiment: In vitro Ames bacterial reverse mutation assay
Type: cell-based
Conditions: presence or absence of microsomal (S9) enzymes
Text: Therefore, the compound of Formula I was judged to be not mutagenic.

For `CS(=O)(=O)c1cccc(C[C@H](NC(=O)c2c(Cl)cc3c(c2Cl)CCN(C(=O)c2ccc4ccoc4c2)C3)C(=O)O)c1` [Compound of Formula I], the mutagenicity was “not mutagenic”.

Reference: patent US9353088B2, “Crystalline pharmaceutical and methods of preparation and use thereof” (SARcode Bioscience Inc., priority 2009, dated 2016)
